# BindingDB's records for doi:10.1074/jbc.M114.573162 (German Institute of Human Nutrition Potsdam-Rehbruecke, 2014)
# Target: T1, Olfactory receptor class A-like protein 1 (Zebrafish, UniProt A0A0R4IM31)
# T1 sequence (A0A0R4IM31 whole entry): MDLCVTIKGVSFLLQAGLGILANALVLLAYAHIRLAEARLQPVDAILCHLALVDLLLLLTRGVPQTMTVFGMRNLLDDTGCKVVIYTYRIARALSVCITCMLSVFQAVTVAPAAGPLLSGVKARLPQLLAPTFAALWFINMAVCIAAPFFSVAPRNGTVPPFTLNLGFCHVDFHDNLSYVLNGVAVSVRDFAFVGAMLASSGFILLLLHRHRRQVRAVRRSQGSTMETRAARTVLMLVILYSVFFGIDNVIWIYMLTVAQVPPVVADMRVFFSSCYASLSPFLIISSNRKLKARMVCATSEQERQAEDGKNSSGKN
# Assay: Functional Calcium Imaging Assay
# Conditions: pH 7.4
# Protocol: Briefly, HEK 293T cells stably expressing the G protein-chimera Gα16gust44 were seeded onto 96-well plates coated with 10 μg/ml of poly-D-lysine. The next day cells were transiently transfected with ORA1, ORA2, or human bitter taste receptor TAS2R16 constructs using Lipofectamine 2000 (Invitrogen). After 24 h the cells were washed with buffer C1 (130 mM NaCl, 5 mM KCl, 10 mM Hepes, pH 7.4, 2 mM CaCl2, 10 mM glucose), and loaded with the calcium-responsive dye Fluo-4 AM in the presence of 1 mM probenecide, an inhibitor of […]. To remove excessive fluorescence dye, cells were washed three times with buffer C1 and transferred into a fluorometric imaging plate reader (FLIPR, Molecular Devices) for measurement. Test substances were dissolved in C1 buffer and the changes in fluorescence after application of test substances were monitored.
row,SMILES,EC50
1,O=C(O)Cc1ccc(Cl)cc1 [2-(4-chlorophenyl)acetic acid],16.6 µM
2,O=C(O)Cc1ccc(O)cc1 [2-(4-hydroxyphenyl)acetic acid],1.9 µM
3,"O=C(O)Cc1ccc2c(c1)OCO2 [3,4-Methylenedioxyphenylacetic acid]",16 µM
4,O=C(O)CCc1ccc(O)cc1 [3-(4-Hydroxyphenyl)-propionic acid],192 µM
5,Nc1ccc(CC(=O)O)cc1 [4-Aminophenylacetic acid],91.7 µM
6,COc1ccc(CC(=O)O)cc1 [4-Methoxyphenylacetic acid],16.5 µM
7,Cc1ccc(C(=O)CC(=O)O)cc1 [4-Toloylacetic acid],14.8 µM
8,CC(C(=O)O)c1ccc(O)cc1 (stereo not given) [Methyl-4-hydroxyphenylacetic acid],221 µM
9,"O=C(O)Cc1ccccc1 [Phenylacetate, XIX]",30.5 µM
10,O=C(O)Cc1ccc(O)c(O)c1 [SMR000326727],22.8 µM
